The values below come from paper PMC11280390, “Synthesis of Nitrostyrylthiazolidine-2,4-dione Derivatives Displaying Antileishmanial Potential” (Pharmaceuticals, 2024).

Data set [1] can be described thus: In vitro cytotoxicity on the human monocyte THP-1 cell line (MTT, 72 h). It is filed as cell-based. The following applies: human; THP-1, 72 h, MTT. On the procedure: (§1) The undifferentiated THP1 human monocyte cells (acute monocytic leukemia cell line purchased from ATCC, ref TIB-202) were routinely grown in RPMI 1640 medium (Life Technologies, Saint-Aubin, France) supplemented with 10% FCS (Life Technologies, Saint-Aubin, France), 100 U/mL penicillin, 100 µg/mL streptomycin and 2 mM L-glutamine at 37 °C, 5% CO2. The culture was maintained between 3.10^5 and 8.10^5 cells/mL. […] Wells were washed with RPMI and 100 µL of fresh complete medium was added. […] Then, 100 µL of MTT solution (0.5 mg/mL in medium) was added to each well. Cells were incubated for 2 h at 37 °C. […] Plates were shaken vigorously (700 rpm) for 10 min. […] (Palo Alto, CA, USA).

The subject of data set [2] is Leishmania infantum promastigotes. Description: In vitro antileishmanial activity on L. infantum promastigotes (MTT, 72 h). The class given is cell-based. The conditions noted are these: Leishmania infantum, L. infantum promastigotes, MTT, read-out: Anti-L. infantum Promastigote Activity EC50. As to the method:
Luciferase-expressing Leishmania infantum was kindly provided by Professor Thierry Lang of the Institut Pasteur. L. infantum promastigotes were routinely grown at 27 °C in Schneider’s Drosophila Medium (Dominique […] SAS, Bernolsheim, France) supplemented with 10% fetal calf serum, 2% human urine, sodium pyruvate 0.04 mM, hemin 0.1 µg/mL, HEPES 5 mM, streptomycin 100 µg/mL, penicillin 100 U/mL, L-glutamine 2 mM (culture medium). The in vitro evaluation of the antileishmanial activity of the tested compound on L. infantum promastigotes forms was assessed according to the Mosmann protocol with slight modifications. […] Appropriate controls treated with DMSO, Miltefosine, Amphotericin B and Fexinidazole sulfone (reference drugs purchased from Sigma-Aldrich, Saint-Louis, MO, USA) were added to each set of experiments. The plates were incubated at 27 °C for 72 h, Then, each plate-well was microscope-analyzed to detect any precipitate formation. Afterward, 20 µL of MTT (3-(4,5-dimethylthiazol-2-yl)-2,5-diphenyltetrazolium bromide) (Sigma-Aldrich, Saint-Louis, MI, USA) solution (5 mg/mL in PBS) were added to each well and incubated at 27 °C for 4 h. The reaction was then stopped by the addition of 100 µL of 10% sodium dodecyl sulfate—50% isopropanol. Plates were shaken vigorously at 400 rpm for 10 min. […] EC50 values represent the mean value calculated from at least three separate experiments.

For data set [3], the system named is HepG2 cell line. Description: In vitro cytotoxicity on the human hepatic HepG2 cell line (MTT, 72 h). The following applies: for CC50: read-out: HepG2 Cytotoxicity CC50, HepG2, 72 h, MTT; for Selectivity INDEX (SI = CC50/EC50): HepG2 CC50 / L. infantum promastigote EC50. As to the method:
(§2) HepG2 cell line (hepatocarcinoma cell line purchased from ATCC, ref HB-8065) was maintained at 37 °C, 5% CO2 with 90% humidity in MEM supplemented with 10% fetal bovine serum, 1% L-glutamine (200 mM) and penicillin (100 U/mL)/streptomycin ([…]) (complete MEM medium). The tested molecules’ cytotoxicity was assessed according to the method of Mosmann with slight modifications. Briefly, 5 × 10^3 cells in 100 μL of complete medium were inoculated into each well of 96-well plates and incubated at 37 °C in a humidified 5% CO2. After 24 h incubation, 100 μL of medium with various product concentrations dissolved in DMSO (final concentration less than 0.5% v/v) were added and the plates were incubated for 72 h at 37 °C. Triplicate assays were performed for each sample. Each plate well was then microscope-examined to detect possible precipitate formation before the medium was aspirated from the wells. Then, 100 μL of MTT (3-(4,5-dimethyl-2-thiazolyl)-2,5-diphenyl-2H-tetrazolium bromide) solution (0.5 mg/mL in medium without FCS) were then added to each well. Cells were incubated for 2 h at 37 °C, following which the MTT solution was removed and DMSO (100 μL) was added to dissolve the resulting blue formazan crystals. Plates were shaken vigorously (700 rpm) for 10 min. The absorbance was measured at 570 nm with 630 nm as reference wavelength using a TECAN Infinite F-200 spectrophotometer (Tecan Trading AG, Männedorf, Switzerland). DMSO was used as blank and doxorubicin (purchased from Sigma Aldrich, Saint Louis, MI, USA) as positive control. Cell viability was calculated as a percentage of control (cells incubated without compound). […] CC50 values represent the mean value calculated from three separate experiments.

Data set [4] concerns wild-type L. donovani (LdBOB) promastigotes. Description: Antileishmanial activity against wild-type L. donovani promastigotes. It is filed as cell-based. The conditions noted are these: Leishmania donovani, read-out: EC50 Values, WT. As to the method:
(§3) EC50 values were determined as previously described. Nifurtimox was used as a positive control for activation via NTR1 [38] while delamanid was used as a positive control for activation via NTR2 [39].

In data set [5] the test system is L. donovani promastigotes overexpressing NTR2. Description: microbe, parasite or virus in culture. It is filed as cell-based. The conditions noted are these: Leishmania donovani, read-out: EC50 Values, NTR2 OE. On the procedure:
as §3

The test system of data set [6] is L. donovani promastigotes overexpressing NTR1. Description: microbe, parasite or virus in culture. The following applies: Leishmania donovani, read-out: EC50 Values, NTR1 OE. The class given is cell-based. On the procedure:
as §3

A short description of data set [7]: In vitro cytotoxicity on the human hepatic HepG2 cell line (MTT, 72 h). The following applies: human, HepG2 cells (hepatocarcinoma cell line, ATCC HB-8065), HepG2 Cytotoxicity CC50, HepG2, 72 h, MTT. As to the method: as §2
Data set [8] deals with THP-1 cell line. Description: In vitro cytotoxicity on the human monocyte THP-1 cell line (MTT, 72 h). The class given is cell-based. The conditions noted are these: THP-1 CC50 / L. infantum promastigote EC50. On the procedure:
as §1

A short description of data set [9]: Lipophilicity by Chromatographic Hydrophobicity Index (CHI). The conditions noted are these: pH 7.4, CHI; read-out: CHI logD7.4. The class given is physicochemical. On the procedure: B: acetonitrile, at a flow rate of 0.300 mL/min and 0.5-µL injections. The validity of the CHI versus retention time was established on a reference mixture containing theophylline, phenyltetrazole, benzimidazole, acetophenone, propiophenone, butyrophenone and valerophenone.

Data set [10] is described as follows: Aqueous solubility in PBS by shake-flask method. It is filed as physicochemical. The following applies: 25 °C, pH 7.4, aqueous buffer, thermodynamic from solid, PBS pH 7.4, 25 °C. On the procedure: Briefly, an excess of compound (approx. 2 mg) was stirred in PBS (0.5 mL, 0.15 M, pH 7.4) at 25 °C for 72 h. A 100 µL sample was drawn, any excess material removed by centrifugation, and diluted tenfold with methanol/water 1:1 before HPLC-UV quantification using a pre-established calibration curve (PLRP-S column (Agilent), 3 µm particle size, 100 A porosity, 50 × 2.1 mm internal dimensions). Eluent: isocratic acetonitrile/water/formic acid 80:20:0.1, 0.4 mL/min, detection at 320 nm, 2-µL injections).

Each structure is given as a SMILES string. ≈ marks a conversion by molar mass, not a printed value. Where “and” joins values, the source holds several entries; their conditions need not be identical. Identical values can stand only once. Like-named read-outs stand apart in the source and are kept apart here.

A word on the CC50: it is the concentration that lowers cell viability or growth by half. For orientation: EC50 means the concentration at which the effect is half-maximal. Compound `C[C@@H]1[C@H](O)[C@@H](C)/C=C/C=C/C=C/C=C/C=C/C=C/C=C/[C@H](O[C@@H]2O[C@H](C)[C@@H](O)[C@H](N)[C@@H]2O)C[C@@H]2O[C@](O)(C[C@@H](O)C[C@@H](O)[C@H](O)CC[C@@H](O)C[C@@H](O)CC(=O)O[C@H]1C)C[C@H](O)[C@H]2C(=O)O` [Amphotericin B, reference compound] yielded a CC50 at 72 h in data set [1] of 17.6 ± 3 µM. The EC50 in data set [2] is 0.06 ± 0.02 µM.

Consider `COc1cccc2c1C(=O)c1c(O)c3c(c(O)c1C2=O)C[C@@](O)(C(=O)CO)C[C@@H]3O[C@H]1C[C@H](N)[C@H](O)[C@H](C)O1` [Doxorubicin, reference compound], for which the CC50 at 72 h in data set [1] was 2.2 ± 0.1 µM. Also, the CC50 in [3] was found to be 0.2 ± 0.02 µM.

With `CC1CS(=O)(=O)CCN1/N=C/c1ccc([N+](=O)[O-])o1` (centres unmarked) [Nifurtimox], the EC50 in data set [4] stood at 3.11 ± 0.223 µM; in [5], 0.163 ± 0.011 µM; in data set [6] it was 0.144 ± 0.01 µM.

With `CCCCCCCCCCCCCCCCOP(=O)([O-])OCC[N+](C)(C)C` [Miltefosine, reference compound], the CC50 at 72 h in data set [1] was 30 ± 4 µM. Moreover, the EC50 in [2] is 3.3 ± 0.8 µM.

Regarding `C[C@]1(COc2ccc(N3CCC(Oc4ccc(OC(F)(F)F)cc4)CC3)cc2)Cn2cc([N+](=O)[O-])nc2O1` [Delamanid], the EC50 amounted to 0.003 ± 0.0001 µM in data set [4], 0.0003 ± 1e-06 µM in [5] and 0.002 ± 0.0003 µM in data set [6].

For orientation: melting point means the temperature of the solid-liquid transition. Take `O=C(CN1C(=O)S/C(=C\c2ccccc2[N+](=O)[O-])C1=O)Nc1ccccc1` [Compound 23b, (Z)-2-(5-(2-Nitrobenzylidene)thiazolidine-2,4-dion-3-yl)-N-phenylacetamide]: the melting point lay within 186 to 188 °C. In data set [7], the CC50 at 72 h was 22.3 ± 0.59 µM. In addition, the “Selectivity INDEX (SI = CC50/EC50)” value in data set [3] is listed as 1.9. Further, in data set [2], the concentration giving a half-maximal response (EC50) is 11.6 ± 3.43 µM.

The compound `NC(=O)CN1C(=O)S/C(=C\c2cccc([N+](=O)[O-])c2)C1=O` [Compound 15c, (Z)-2-(5-(3-Nitrobenzylidene)thiazolidine-2,4-dion-3-yl)acetamide] came in with a melting point of 256 to 258 °C. The compound also returned a CC50 at 72 h in data set [7] above 62.5 µM. Besides, the “Selectivity INDEX (SI = CC50/EC50)” value in [3] was above 4.7. The concentration for a half-maximal effect (EC50) in data set [2] is 13.3 ± 7.75 µM.

Consider `Cn1c([N+](=O)[O-])cnc1COc1ccc(S(C)(=O)=O)cc1` [Fexinidazole sulfone, reference compound], for which the half-maximal cytotoxic concentration (CC50) at 72 h in data set [1] and in data set [7] was above 200 µM in each case. The “Selectivity INDEX (SI = CC50/EC50)” value in [3] is on record as above 64.5. In addition, the EC50 in [2] is 3.1 ± 0.7 µM.

`O=C(CN1C(=O)S/C(=C\c2ccccc2[N+](=O)[O-])C1=O)Nc1ccc(Cl)cc1` [Compound 27b, (Z)-N-(4-Chlorophenyl)-2-(5-(2-nitrobenzylidene)thiazolidine-2,4-dion-3-yl) acetamide] yielded a melting point of 188 to 190 °C. The compound also showed a cytotoxic concentration (CC50) at 72 h in [7] of 34.6 ± 3.03 µM. In addition, the “Selectivity INDEX (SI = CC50/EC50)” value in data set [3] is listed as 2.1. Besides, the concentration giving a half-maximal response (EC50) in data set [2] was 16.3 ± 3.85 µM.

Compound `N#CCN1C(=O)S/C(=C\c2ccc([N+](=O)[O-])cc2)C1=O` [Compound 14d, (Z)-2-(5-(4-Nitrobenzylidene)thiazolidine-2,4-dion-3-yl)acetonitrile] displayed a melting point of 193 to 195 °C. Also, half-maximal cytotoxicity in data set [7] (CC50 at 72 h) was put at 109 ± 11 µM. Moreover, the “Selectivity INDEX (SI = CC50/EC50)” value in data set [3] is given as 4.4. The EC50 in [2] is 24.8 ± 6.09 µM.

Take `COc1ccc(NC(=O)CN2C(=O)S/C(=C\c3ccccc3[N+](=O)[O-])C2=O)cc1` [Compound 25b, (Z)-2-(5-(2-Nitrobenzylidene)thiazolidine-2,4-dion-3-yl)-N-(4-methoxyphenyl) acetamide]: the melting point fell in the range of 204 to 205 °C. Further, the CC50 at 72 h in data set [7] was determined as 23.3 ± 2.93 µM. In addition, the “Selectivity INDEX (SI = CC50/EC50)” value in data set [3] is on record as 1.1. Also, the 50% effective concentration (EC50) in [2] worked out at 22.3 ± 4.93 µM.

The solubility is how much of the substance goes into solution per volume. The compound `N#CCN1C(=O)S/C(=C\c2cccc([N+](=O)[O-])c2)C1=O` [Compound 14c, (Z)-2-(5-(3-Nitrobenzylidene)thiazolidine-2,4-dion-3-yl)acetonitrile] displayed a melting point of 173 to 175 °C. Further, in data set [1], it took 121 ± 9 µM to reach half-maximal cytotoxicity (CC50 at 72 h). Also, in [8], the “Selectivity index (THP-1)” value is 17. In [7], this compound registered a half-maximal cytotoxic concentration (CC50) at 72 h of 101 µM. In addition, in data set [3], the “Selectivity INDEX (SI = CC50/EC50)” value is 14 and 14.4; the CC50 came to 101 ± 19.3 µM. The EC50 in data set [2] worked out at 7 ± 2.96 µM. The chromatographic logD in data set [9] came out at 2.85. Further, the EC50 in data set [4] amounted to 22.1 µM. For the same compound, the EC50 in data set [5] was 18.5 µM. Besides, the concentration for a half-maximal effect (EC50) in data set [6] turned out to be 3.78 ± 0.313 µM. Also, the solubility at 72 h in data set [10] (read-out: PBS Solubility (log S) (converted)) was 15.8 µM (≈ 4.58 µg/mL). In addition, the solubility at 72 h in data set [10] (read-out: PBS solubility) was found to be 16 µM (≈ 4.63 µg/mL).

As to `CCOC(=O)CN1C(=O)S/C(=C\c2ccccc2[N+](=O)[O-])C1=O` [Compound 12b, Ethyl ((Z)-5-(2-nitrobenzylidene)thiazolidine-2,4-dion-3-yl)acetate], the melting point lay within 81 to 83 °C. The compound also had a CC50 at 72 h in [7] of 39.4 ± 7.09 µM. In addition, the “Selectivity INDEX (SI = CC50/EC50)” value in [3] is reported as 1.6. Moreover, the EC50 in data set [2] worked out at 24.1 ± 5.14 µM.
